Literature values in patent US11807855B2, “Selection vectors and methods of selecting eukaryotic host cells” (Novartis AG, priority 2013, dated 2023).

How the values were obtained:
[1] = target: A49L mutated folate receptor alpha (Homo sapiens, UniProt P15328, A74L); details: A49L mutant
[2] = target: wild type folate receptor alpha (Homo sapiens, UniProt P15328)
[3] = target: FR alpha and FR beta
[4] = target: T1, RFC (Homo sapiens, UniProt P41440)
T1 sequence (P41440 1-591): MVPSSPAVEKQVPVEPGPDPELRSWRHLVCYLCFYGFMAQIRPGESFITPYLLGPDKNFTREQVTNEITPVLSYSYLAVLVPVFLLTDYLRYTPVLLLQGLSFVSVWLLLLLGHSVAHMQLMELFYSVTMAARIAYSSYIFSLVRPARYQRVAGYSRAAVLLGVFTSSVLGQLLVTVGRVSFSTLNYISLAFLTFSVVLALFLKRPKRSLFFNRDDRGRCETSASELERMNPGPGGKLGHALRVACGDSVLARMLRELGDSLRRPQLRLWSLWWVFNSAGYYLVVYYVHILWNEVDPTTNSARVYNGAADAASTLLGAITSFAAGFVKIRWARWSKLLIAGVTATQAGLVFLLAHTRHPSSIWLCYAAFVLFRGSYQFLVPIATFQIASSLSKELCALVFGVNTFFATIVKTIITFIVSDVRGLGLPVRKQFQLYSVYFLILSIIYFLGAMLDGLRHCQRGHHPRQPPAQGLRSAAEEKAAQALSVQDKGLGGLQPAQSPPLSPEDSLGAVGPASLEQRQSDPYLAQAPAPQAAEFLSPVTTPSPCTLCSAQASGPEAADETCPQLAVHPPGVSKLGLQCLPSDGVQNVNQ

wild type folate receptor alpha, sequence (P15328 25-234): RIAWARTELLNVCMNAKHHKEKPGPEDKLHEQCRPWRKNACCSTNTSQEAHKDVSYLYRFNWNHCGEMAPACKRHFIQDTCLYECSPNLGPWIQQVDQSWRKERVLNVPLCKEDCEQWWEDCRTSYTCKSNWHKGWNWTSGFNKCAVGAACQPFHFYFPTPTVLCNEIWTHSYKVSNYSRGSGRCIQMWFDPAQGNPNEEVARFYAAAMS
A49L mutated folate receptor alpha, sequence (P15328 25-234 A74L): as the sequence (P15328 25-234) above, with A50L counted along it

CN1c2c(nc(N)[nH]c2=O)NCC1CNc1ccc(C(=O)N[C@@H](CCC(=O)O)C(=O)O)cc1 (single isomer, unassigned) [6S diastereoisomer of 5-methyltetrahydrofolate, 5-methyltetrahydrofolate]
IC50 [1]: 179 nM
IC50 [2]: 2.9 nM

Nc1nc2c(c(=O)[nH]1)CC(CCc1ccc(C(=O)N[C@@H](CCC(=O)O)C(=O)O)cc1)CN2 (stereo partly shown) [5,10-dideazatetrahydrofolic acid]
Ki ([3]; using [3H]folic acid as a substrate): 0.4 to 1.3 nM

C#CCN(c1ccc(C(=O)N[C@@H](CCC(=O)N[C@H](CCC(=O)O)C(=O)O)C(=O)O)cc1)[C@H]1CCc2cc3nc(CO)[nH]c(=O)c3cc21 [BGC945]
Kd [3]: 1 nM

CN(Cc1cnc2nc(N)nc(N)c2n1)c1ccc(C(=O)N[C@@H](CCC(=O)O)C(=O)O)cc1 [MTX, methotrexate]
Kd [3]: > 100 nM

Nc1nc2ncc(CNc3ccc(C(=O)N[C@@H](CCC(=O)O)C(=O)O)cc3)nc2c(=O)[nH]1 [folic acid]
Kd [3]: 0.1 to 1 nM
Km [4]: 200 to 400 µM
